According to PubChem BioAssay (NCI):
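Exposure lasted 48 hours, with cells grown in 96-well plates and compounds tested at five concentrations. Here, GI50 denotes the concentration required for 50% inhibition of growth. The concentration for full growth arrest is given as TGI.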

Columns and labels:
Test in all cases: NCI tumour cell line growth inhibition, 48 h
MDA-MB-435 = tested on: MDA-MB-435
SK-MEL-28 melanoma = tested on: SK-MEL-28 melanoma
CCRF-CEM leukemia = tested on: CCRF-CEM leukemia
LOX IMVI melanoma = tested on: LOX IMVI melanoma
TK-10 renal = tested on: TK-10 renal
MOLT-4 leukemia = tested on: MOLT-4 leukemia
A498 renal = tested on: A498 renal
ACHN renal = tested on: ACHN renal
RPMI-8226 leukemia = tested on: RPMI-8226 leukemia
HOP-92 NSCLC = tested on: HOP-92 NSCLC
SW-620 colon = tested on: SW-620 colon
SN12C renal = tested on: SN12C renal
IGROV1 ovarian = tested on: IGROV1 ovarian
RXF 393 renal = tested on: RXF 393 renal
SK-OV-3 ovarian = tested on: SK-OV-3 ovarian
BT-549 breast = tested on: BT-549 breast
UACC-257 melanoma = tested on: UACC-257 melanoma
KM12 colon = tested on: KM12 colon
UO-31 renal = tested on: UO-31 renal
EKVX NSCLC = tested on: EKVX NSCLC
HCT-15 colon = tested on: HCT-15 colon
T-47D breast = tested on: T-47D breast
HT29 colon = tested on: HT29 colon
COLO 205 colon = tested on: COLO 205 colon
MALME-3M melanoma = tested on: MALME-3M melanoma
SNB-19 CNS = tested on: SNB-19 CNS
HOP-62 NSCLC = tested on: HOP-62 NSCLC
OVCAR-8 ovarian = tested on: OVCAR-8 ovarian

## CN(C)c1ccc(N2Cc3ccccc3OC3=C2C(=O)c2c(O)ccc(O)c2C3=O)cn1
MDA-MB-435
  GI50: 237 nM
  TGI: 544 nM
SK-MEL-28 melanoma
  GI50: 275 nM
  TGI: 762 nM
CCRF-CEM leukemia
  GI50: 102 nM
  TGI: 815 nM
LOX IMVI melanoma
  GI50: 160 nM
  TGI: 480 nM
TK-10 renal
  GI50: 348 nM
  TGI: 908 nM
MOLT-4 leukemia
  GI50: 112 nM
  TGI: 843 nM
A498 renal
  GI50: 2150 nM
  TGI: 5800 nM
ACHN renal
  GI50: 158 nM
  TGI: 698 nM
RPMI-8226 leukemia
  GI50: 235 nM
  TGI: 797 nM
HOP-92 NSCLC
  GI50: 200 nM
  TGI: 467 nM
SW-620 colon
  GI50: 178 nM
  TGI: 586 nM
SN12C renal
  GI50: 261 nM
  TGI: 1030 nM
IGROV1 ovarian
  GI50: 280 nM
  TGI: 1000 nM
RXF 393 renal
  GI50: 152 nM
  TGI: 318 nM
SK-OV-3 ovarian
  GI50: 3050 nM
  TGI: 11600 nM
BT-549 breast
  GI50: 195 nM
  TGI: 507 nM
UACC-257 melanoma
  GI50: 311 nM
  TGI: 1140 nM
KM12 colon
  GI50: 1030 nM
  TGI: 3080 nM
UO-31 renal
  GI50: 135 nM
  TGI: 351 nM
EKVX NSCLC
  GI50: 242 nM
  TGI: 1210 nM
HCT-15 colon
  GI50: 178 nM
  TGI: 502 nM
T-47D breast
  GI50: 258 nM
  TGI: 1270 nM
HT29 colon
  GI50: 232 nM
  TGI: 578 nM
COLO 205 colon
  GI50: 174 nM
  TGI: 380 nM
MALME-3M melanoma
  GI50: 218 nM
  TGI: 495 nM
SNB-19 CNS
  GI50: 563 nM
  TGI: 2240 nM
HOP-62 NSCLC
  GI50: 1560 nM
  TGI: 3860 nM
OVCAR-8 ovarian
  GI50: 268 nM
  TGI: 1260 nM
